Data: US20250207131A1, “MODIFIED RNA AGENTS WITH REDUCED OFF-TARGET EFFECT” (Alnylam Pharmaceuticals, Inc., priority 2018, published 2025)

Experiments:
[1] = tested on: TTR; test: In vitro on-target activity, primary mouse hepatocytes, free uptake (TTR siRNAs); assay type: cell-based; conditions: 1 nM, log2 transformed, relative to the parent
[2] = tested on: TTR; test: Mouse pharmacodynamic study, circulating TTR protein; assay type: in vivo; set-up: key: fraction of vehicle-control group mean serum TTR protein; conditions: mice, single dose 1 mg/kg, circulation, Day 7
Protocol: In mouse pharmacodynamic studies, female C57BL/6 mice (Charles River Laboratories) were administered a single dose of a vehicle control (1×PBS or 0.9% sodium chloride) or siRNA subcutaneously in the upper back. Bleeds were collected by retro-orbital bleeding. Serum were separated by centrifuging at 13000 rpm at room temperature for 10 mins. Mouse livers were collected and immediately snap frozen in liquid nitrogen, and stored at −80° C. for mRNA and siRNA analysis.
Mouse TTR Serum Protein Methods:_TTR serum protein was quantified using a commercially available enzyme-linked immunosorbent assay, 41-ALBMS-E01 (ALPCO, Salem, NH), according to manufacturer's instructions. Briefly, serum samples were diluted 4000 fold in 1× ALPCO Kit Dilution Buffer. An 8-point mouse TTR standard curve was generated using 2.5× serial dilutions, ranging from 0 to 1000 ng/mL. Standards and samples (100 uL) were added to the plate and allowed to incubate for 30 minutes at room temperature. […] After a wash in ALPCO Kit 1× Wash Buffer, plates were incubated for 10 minutes at room temperature in the dark with 3,3′,5,5′-tetramethybenzidine (TMB) and hydrogen peroxide in citric acid buffer at pH 3.3. Reactions were quenched with 100 μL of […] sulfuric acid per well. Absorbance at […] was read on a SpectraMax plate reader, and data were fit to a 4-parameter curve (y=(A−D)/(1+(x/C)^B)+D) as calculated in Softmax Pro Software to determine serum TTR protein levels expressed in ug/mL. Protein levels at each time point were normalized to the respective group average of vehicle control serum protein values.

[3] = antisense Position 5, Seq 3 (TTR)
[4] = antisense Position 7, Seq 3 (TTR)
[5] = antisense Position 7, Seq 4 (TTR)

Q: What does the source list for 3′-(R)-Me-UNA [Mod 6 (R)]?
A: On-target FU [1, 3]: −0.78; On-target FU [1, 4]: −0.32; On-target FU [1, 5]: 0.36; On-target, level of protein remaining with respect to PBS control [2, 4]: 0.20; On-target, level of protein remaining with respect to PBS control [2, 5]: 0.29

Q: With 2′-(R)-Me-UNA [Mod 7 (R)] as the substance, how does the “On-target FU” value [1, 3] read?
A: 0.02

Q: And the “On-target FU” value [1, 4]?
A: −0.35

Q: And the “On-target FU” value [1, 5]?
A: −0.24

Q: And the “On-target, level of protein remaining with respect to PBS control” value [2, 4]?
A: 0.18

Q: And the “On-target, level of protein remaining with respect to PBS control” value [2, 5]?
A: 0.14

Q: Which results are given for 2′-(S)-Me-UNA [Mod 7 (S)]?
A: On-target FU [1, 3]: −0.10; On-target FU [1, 4]: −0.02; On-target FU [1, 5]: −0.14; On-target, level of protein remaining with respect to PBS control [2, 4]: 0.15; On-target, level of protein remaining with respect to PBS control [2, 5]: 0.20

Q: Which results are given for 3′-(S)-Me-UNA [Mod 6 (S)]?
A: On-target FU [1, 3]: −0.38; On-target FU [1, 4]: −0.53; On-target FU [1, 5]: −0.09; On-target, level of protein remaining with respect to PBS control [2, 4]: 0.20; On-target, level of protein remaining with respect to PBS control [2, 5]: 0.23

Q: Which results are given for 5′-(R)-Me-UNA [Mod 5 (R)]?
A: On-target FU [1, 3]: −0.16; On-target FU [1, 4]: −0.03; On-target FU [1, 5]: −0.33; On-target, level of protein remaining with respect to PBS control [2, 4]: 0.17; On-target, level of protein remaining with respect to PBS control [2, 5]: 0.16

Q: Which results are given for 5′-(S)-Me-UNA [Mod 5 (S)]?
A: On-target FU [1, 3]: −0.87; On-target FU [1, 4]: −1.20; On-target FU [1, 5]: 0.22; On-target, level of protein remaining with respect to PBS control [2, 4]: 0.17; On-target, level of protein remaining with respect to PBS control [2, 5]: 0.16
